Test results as given in PMC9253268 (Frontiers in Immunology, 2022).
Read-outs that look alike come from different tables or passages of the source. Blank lines part the entries; values can stand above or below the molecule they belong to.

Columns and labels:
[1] = Chemical profiling of BHGZD in sera (UFLC-Q-TOF-MS/MS); details: 30 min after the treatment of BHGZD
Description: (§1) A rapid, sensitive, and reliable method by the UFLC-Q-TOF-MS/MS system was used to identify the chemical profiling of BHGZD as described in Supplementary Materials Section 9 ([30]). The reference standards of these compounds ( Supplementary Table S2 ) were purchased from Chengdu Must Bio-technology Co., Ltd. (Chengdu, China), the National Institute for the Control of Pharmaceutical and Biological Products (Beijing, China), and Chengdu DeSiTe Biological Technology Co., Ltd. (Chengdu, China).
(§2) Sciex, Forster City, USA) with electrospray ionization source (ESI). Kinetex C18 column
(§3) (Phenomenex, 3.0×150 mm, 2.6μm, 100Å) was used to perform chromatographic
(§4) separation with a flow rate of 0.3mL/min at 40℃. A linear gradient program with mobile
(§5) phase system including solvent A (deionized water with 0.1% formic acid, v/v) and solvent
(§6) B (methanol) was described in details: solvent B (5~95%) for 40min, isocratic eluted at
(§7) 95% B for 5min，95%~5% B (40-45min), followed a post-run of 2min to equilibrate the
(§8) The instrumental settings of Q-TOF-MS/MS were described in the previous study
(§9) (9).Samples were analyzed in both positive and negative ionization modes with scanning
(§10) mas-to-charge (m/z) range from 50 to 1500. Data was collected in information-dependent
(§11) acquisition (IDA) mode and analyzed by PeakView® 2.2 software (AB Sciex, Foster City,
(§12) Chemical identifications were based on reference standards and mass spectral
(§13) library (Natural Products HR-MS/MS Spectral Library, Version 1.0, AB Sciex, Forster City,

[2] = rat, in vivo
Description: as §1, §2, §3, §4, §5, §6, §7, §8, §9, §10, §11, §12, §13

RAW264.7 cells [3] = test: LPS/ATP-induced pyroptosis in RAW264.7 cells (flow cytometry, FAM-FLICA, immunofluorescence, Western blotting, ELISA); assay type: cell-based, mouse
recombinant AKT1 protein = target: T1, recombinant AKT1 protein (Homo sapiens, UniProt P31749); test: Surface plasmon resonance (SPR) binding assay; details: Biacore 8K, read-out: mean KD, MG–AKT
T1 construct: His tag; purchased Abcam ab116412
Description: To confirm the binding affinity of recombinant AKT1 protein and MG, SPR assay was performed with Biacore 8K (Biacore, Cytiva), and the K D value was calculated using the Biacore 8K evaluation software 2.0 (GE Healthcare). Detailed information on SPR assay is provided in Supplementary Materials Section 11 . […]
compound was greater than 9.0×106cm/s and 40% which indicated drug-like […]
Section 11 Surface plasmon resonance (SPR) assay
SPR binding assays were analyzed with Biacore 8K (Biacore, Cytiva). Materials and reagents used in SPR assays were purchased from Cytiva. The histidine-tagged AKT1 (Cat No. ab116412, Abcam, Cambridge, UK) was immobilized on the surface of Carboxymethylated (CM5) sensor chip through the standard amino coupling method. The carboxyl groups of the sensor surface were activated by injection of a solution containing 0.2M N-ethyl-N9-(3-dimethylaminopropyl) carbodiimide (EDC) and 0.05M N-hydroxysuccinimide (NHS), AKT1 in 10mM sodium acetate buffer was then injected at a flow rate of 10μL/min to couple to the sensor surface, and the remaining active sites in the […]
Sensor chips were primed twice with degassed physiological running buffer (PBS buffer). A reference flow cell was activated and blocked in the absence of AKT1. […]

MH7A cells = test: LPS/ATP-induced pyroptosis in MH7A cells (TUNEL, immunofluorescence, Western blotting, ELISA); assay type: cell-based, human
[4] = In vivo pharmacokinetic analysis of MG and CA after oral BHGZD (UHPLC-QTRAP-MS/MS); details: rat plasma after oral BHGZD 21.4 g/kg each day, n = 3
Description: The pharmacokinetic parameters were calculated by Drug and Statistic software (Shanghai, China). Detailed information on the collection of blood samples and UHPLC-QTRAP-MS/MS conditions is provided in Supplementary Materials Section 13 . […]
Section 13 Pharmacokinetic analysis […]
administration of BHGZD, ultra-fast liquid chromatography coupled with triple quadrupole-linear ion trap composite mass spectrometry (UHPLC-QTRAP-MS/MS) system was […]
Bioanalytical Method Validation issued by Chinese Pharmacopoeia Commission in 2020.
The pharmacokinetic parameters were calculated by Drug and Statistic software […]
1) Collection of blood samples
Male Lewis rats (n=6, 6-8 weeks-old, 200±20g in weight) were purchased from Beijing Vital River Laboratory Animal Technology Co., Ltd. (SCCK 2016-0006, Beijing, China; n=3 per group, including normal control group and normal control+BHGZD treatment group).
Diet was prohibited for 12h before the experiment but water was freely available. Blood samples (~0.25mL) were collected from the retinal venous plexus into heparinized 1.5mL polythene tubes before administration and 0, 0.25, 0.5, 1, 2, 3, 4, 6, 8,12 and 24h after administration of BHGZD. The plasma samples were obtained after centrifuging at 12000rpm for 15min, and stored at -20℃ prior to analysis.
2) UHPLC-QTRAP-MS/MS conditions
Quantification analysis were performed on an ultra-high-performance liquid chromatography (Shimadzu Corp., Japan) tandem ion trap quadrupole QTRAP 6500 plus mass spectrometry (AB Sciex, USA). Chromatographic separation was conducted using a Poroshell 120 EC-C18 column (3.0×50mm, 2.7μm) at 40℃. The mobile phase was consisted of 0.1% formic acid–water (v/v, A) and methanol (B) and elution program were:
Mass spectrometry detector were conducted in negative mode and the detecting parameters were set as follows: curtain gas, 35 psi; collision gas, medium; ionspray voltage, 4500 V; temperature, 550℃; ion source gas 1 and 2, 55psi. Quantitative ion pairs were optimized for MG: m/z 421.2-301.1 (declustering potential: 63V, CE: 30eV) and for […]
Data acquisition and analysis

RAW264.7 cells [5] = test: Cell viability, CCK-8 assay; assay type: cell-based, mouse; details: 0.21–6.74 ng/ml MG or 0.02–0.52 ng/ml CA treatment alone
Description: Cell viability was analyzed with the cell counting kit-8 (CCK-8) assay kit (Beyotime Biotechnology, Shanghai, China) as described in Supplementary Materials Section 16 .
Section 16 Cell proliferation assay
Cell viability was analyzed with Cell Counting Kit-8 (CCK-8) assay kit (Beyotime Biotechnology, China). Raw264.7 cells were seeded into 96-well plate, and after […]
solution was added to each well. The absorbance was measured after 4h of incubation at […]
Section 17 Flow cytometry
To identify and quantify of pyroptosis population of Raw264.7 cells, FITC Apoptosis Detection kit I staining with both the Annexin V-fluorescein isothiocyanate and propidium iodide (PI, BD Biosciences, San Jose, CA, USA) was used in accordance with manufacturer's guidelines. Briefly, Raw264.7 cells was washed twice with cold PBS and then resuspended in 1×binding buffer at a concentration of 1x10^6 cells/mL. Then, 100µL of the solution (1x10^5 cells) was transferred to a 5 mL culture tube. Subsequently, 5µL of FITC Annexin V and 5µL PI were added into cultured tube, and vortexed and incubated for 15 min at room temperature in the dark. Finally, 400µL 1×binding buffer was added into each tube, and analyzed by flow cytometry (ACEA Bioscience, San Diego, CA, USA) and NovoExpress 1.4.1 software (ACEA Bioscience, San Diego, CA, USA) within 1h.

[6] = LPS/ATP-induced RAW264.7 cells, all p < 0.05
[7] = LPS/ATP-induced, BHGZD 28.54 μg/ml, MG 1.69 ng/ml, CA 0.13 ng/ml, 24 h
[8] = LPS/ATP-induced MH7A cells, all p < 0.05

T1 sequence (P31749 whole entry): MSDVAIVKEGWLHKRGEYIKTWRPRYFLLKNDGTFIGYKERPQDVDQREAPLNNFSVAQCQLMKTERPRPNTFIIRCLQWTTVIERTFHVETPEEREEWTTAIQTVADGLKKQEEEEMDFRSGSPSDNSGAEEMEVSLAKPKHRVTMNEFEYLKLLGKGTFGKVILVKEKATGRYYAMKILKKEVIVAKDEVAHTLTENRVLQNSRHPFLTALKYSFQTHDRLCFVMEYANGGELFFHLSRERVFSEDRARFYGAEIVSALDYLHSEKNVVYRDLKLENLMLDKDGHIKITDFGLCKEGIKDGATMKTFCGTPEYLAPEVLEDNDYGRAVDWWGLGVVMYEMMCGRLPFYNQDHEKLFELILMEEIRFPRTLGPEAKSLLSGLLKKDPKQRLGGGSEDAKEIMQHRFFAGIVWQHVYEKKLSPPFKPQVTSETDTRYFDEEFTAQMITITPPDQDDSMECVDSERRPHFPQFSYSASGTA

Molecule: O=C1C[C@@H](c2ccc(O)cc2)Oc2cc(O)ccc21 [liquiritigenin]
quantitative detection in sera after the treatment of BHGZD [1]: detected

quantitative detection in sera after the treatment of BHGZD [1]: detected
Molecule: O=c1cc(-c2ccc(O)cc2)oc2c([C@@H]3O[C@H](CO)[C@@H](O)[C@H](O)[C@H]3O)c(O)c([C@@H]3OC[C@H](O)[C@H](O)[C@H]3O)c(O)c12 [isoschaftoside]

quantitative detection in sera after the treatment of BHGZD [1]: detected
Molecule: O=c1cc(-c2ccc(O)cc2)oc2cc(O)c([C@@H]3O[C@H](CO)[C@@H](O)[C@H](O)[C@H]3O)c(O)c12 [isovitexin]

quantitative detection in sera after the treatment of BHGZD [1]: detected
Molecule: O=c1cc(-c2ccc(O)cc2)oc2c([C@@H]3O[C@H](CO)[C@@H](O)[C@H](O)[C@H]3O)c(O)cc(O)c12 [vitexin]

Molecule: C[C@@H](CC[C@@]1(O)O[C@H]2C[C@H]3[C@@H]4CC[C@@H]5C[C@@H](O[C@@H]6O[C@H](CO)[C@H](O)[C@H](O)[C@H]6O[C@@H]6O[C@H](CO)[C@@H](O)[C@H](O)[C@H]6O)CC[C@]5(C)[C@H]4CC[C@]3(C)[C@H]2[C@@H]1C)CO[C@@H]1O[C@H](CO)[C@@H](O)[C@H](O)[C@H]1O [timosaponin B II]
quantitative detection in sera after the treatment of BHGZD [1]: detected

quantitative detection in sera after the treatment of BHGZD [1]: detected
Molecule: O=c1c2cc(O[C@@H]3O[C@H](CO)[C@@H](O)[C@H](O)[C@H]3O)c(O)cc2oc2cc(O)c([C@@H]3O[C@H](CO)[C@@H](O)[C@H](O)[C@H]3O)c(O)c12 [neomangiferin]

Molecule: O=C(/C=C/c1ccc(O[C@@H]2O[C@H](CO)[C@@H](O)[C@H](O)[C@H]2O)cc1)c1ccc(O)cc1O [isoliquiritin]
quantitative detection in sera after the treatment of BHGZD [1]: detected

quantitative detection in sera after the treatment of BHGZD [2]: detected
Molecule: COc1cc2c(=O)c3c(O)c([C@@H]4O[C@H](CO)[C@@H](O)[C@H](O)[C@H]4O)c(O)cc3oc2cc1O [7-O-methyl mangiferin]

quantitative detection in sera after the treatment of BHGZD [1]: detected
Molecule: COc1ccc(-c2coc3cc(O)ccc3c2=O)cc1 [formononetin]

quantitative detection in sera after the treatment of BHGZD [1]: detected
Molecule: CC1(C)[C@@H](O[C@H]2O[C@H](C(=O)O)[C@@H](O)[C@H](O)[C@H]2O[C@@H]2O[C@H](C(=O)O)[C@@H](O)[C@H](O)[C@H]2O)CC[C@]2(C)[C@H]3C(=O)C=C4[C@@H]5C[C@@](C)(C(=O)O)CC[C@]5(C)CC[C@@]4(C)[C@]3(C)CC[C@@H]12 [glycyrrhizic acid]

quantitative detection in sera after the treatment of BHGZD [1]: detected
Molecule: anemarrhensaponin I

Molecule: O=c1c2cc(O)c(O)cc2oc2cc(O)c([C@@H]3O[C@H](CO)[C@@H](O)[C@H](O)[C@H]3O)c(O)c12 [MG, mangiferin]
GSDMD-NT (RAW264.7 cells [3]; LPS/ATP-induced RAW264.7 cells, Western blotting): decreased
expression levels of NLRP3, ASC, and caspase-1 (RAW264.7 cells [3]; [6]): reduced
levels of IL-1β, IL-18, and LDH release in the supernatant (RAW264.7 cells [3]; [6]): reduced
PI positive cell rate (RAW264.7 cells [3]; LPS/ATP-induced, 1.69 ng/ml MG, 0.13 ng/ml CA, 24 h, inferior to BHGZD, all p < 0.05): prominently reduced
number of FLICA-positive RAW264.7 cells (RAW264.7 cells [3]; [7]): reduced
inhibition on cell pyroptosis induced by LPS/ATP, alone versus combination (RAW264.7 cells [3]; RAW264.7 and MH7A cells, all p < 0.05): weaker than that in the two-BAC combination treatment group
quantitative detection in sera after the treatment of BHGZD [1]: detected
Kd (recombinant AKT1 protein): 38.3 µM
GSDMD-NT (MH7A cells; LPS/ATP-induced MH7A cells, Western blotting): decreased
expression levels of NLRP3, ASC, and caspase-1 (MH7A cells; [8]): reduced
levels of IL-1β, IL-18, and LDH release in the supernatant (MH7A cells; [8]): reduced
number of TUNEL-positive MH7A cells (MH7A cells; [7]): reduced
Cmax ([4]; male, Lewis, rat, plasma, po, 21.4 g/kg, non-compartment model, read-out: Cmax): 132 ng/mL
AUC(0-t) ([4]; male, Lewis, 0-24 h): 578 ± 183 ng·h/mL
half-life ([4]; male, Lewis, apparent elimination half-life, read-out: t1/2z (converted)): 1.26 ± 0.23 h
AUC(0-inf) ([4]; male, Lewis): 579 ± 182 ng·h/mL
MRT last ([4]; male, Lewis, read-out: MRT(0-t)): 4.23 ± 0.3 h
MRT inf ([4]; male, Lewis, read-out: MRT(0-∞)): 4.25 ± 0.28 h
Tmax ([4]; male, Lewis, non-compartment model): 4 h
Cmax ([4]; non-compartment model, listed as Mangiferin (MG)): 132.07 ± 44.67 ng/mL
cell viability (CCK8) (RAW264.7 cells [5]): no cell toxicity
